Data reported in patent US20060165840A1, “Fish feed” (Norsk Hydro ASA, priority 2002, published 2006).
“Also recorded” adds a separate entry of the source.

Experiment: Oxidative stability of salmon oil, induction period in weight increase experiment
Settings: salmon oil from fresh raw materials, antioxidant added to oil, versus control oil without additions
Experimental: The oil stability was measured as the induction period (in days) in weight increase experiment. Oil A is salmon oil with 200 ppm d-α-tocopherol. Oil E is the control without additions.
To a sample of fresh fish oil prepared by gentle processing of fresh salmon filleting by-products (viscera, heads, framebones), we added 200 ppm vitamin E consisting of 89-99% d-α-tocopherol and 1-11% (β+γ+δ)-tocopherols (according to product specification), and a mixture of other/synergistic.
To another sample of the oil, we added 200 ppm vitamin E consisting of 14% d-α-tocopherol, 1% d-β-tocopherol, 62% d-γ-tocopherol and 23% d-δ-tocopherol, and a mixture of other/synergistic antioxidants similar to what was given to the first sample.
The oxidative stability of the three oils were tested by subjecting 3.0 g samples in 6.0 cm glass petri dishes to a temperature of 35° C. while exposed to air. The oxygen uptake caused by oxidation was recorded as a rapid weight increase of the samples when their antioxidative resistance was broken down, after an initial induction time (IP).

Cc1c(C)c2c(c(C)c1O)CC[C@@](C)(CCC[C@H](C)CCC[C@H](C)CCCC(C)C)O2 [d-α-tocopherol]
oil stability measured as induction period: weakly prooxidant effects; also recorded: did not increase stability, but gave instead a small prooxidant effect
